Test [1] has as its target T1, Neuronal acetylcholine receptor; alpha4/beta2 (Homo sapiens, UniProt P17787+P43681). Briefly: Inhibition of human (alpha4)3(beta2)2 nAChR expressed in Xenopus laevis oocytes assessed as inhibition of acetylcholine-induced current response at 10 uM pretreated for 30 secs followed by co-application with acetylcholine measured at holding potential of -60 mV by two-electrode voltage-clamp method. Particulars: Oocyte, time 30.0 sec. The format is cell-based. (Two-electrode voltage clamp holds a large cell at a set potential and records current.)

The target of test [2] is T1, Neuronal acetylcholine receptor; alpha4/beta2. Put plainly: Inhibition of human (alpha4)3(beta2)2 nAChR expressed in Xenopus laevis oocytes assessed as inhibition of acetylcholine-induced current response in presence of 100 uM acetylcholine by two-electrode voltage-clamp method. Format: cell-based. To be noted: for logIC50: Oocyte.
For test [3] the target is unchanged. Briefly: Inhibition of human (alpha4)2(beta2)3 nAChR expressed in Xenopus laevis oocytes assessed as inhibition of acetylcholine-induced current response at 10 uM pretreated for 30 secs followed by co-application with acetylcholine measured at holding potential of -60 mV by two-electrode voltage-clamp method. Format: cell-based. To be noted: Oocyte, time 30.0 sec.

For test [4] the target is unchanged. Briefly: Inhibition of human (alpha4)2(beta2)3 nAChR expressed in Xenopus laevis oocytes assessed as inhibition of acetylcholine-induced current response in presence of 3 uM acetylcholine by two-electrode voltage-clamp method. The format is cell-based. To be noted: for logIC50: Oocyte.
Test [5] has the same target. Briefly: Non-competitive antagonist activity at human (alpha4)3(beta2)2 nAChR expressed in Xenopus laevis oocytes decrease in acetylcholine-induced maximum current with non-significant change in Ach potency at IC50 pretreated for 30 secs followed by co-application with acetylcholine measured at holding potential of -60 mV by two-electrode voltage-clamp method. To be noted: Oocyte, time 30.0 sec. The format is cell-based.

Test [6] concerns the target Neuronal acetylcholine receptor subunit alpha-7 (Rattus norvegicus, UniProt Q05941). Put plainly: Inhibition of rat alpha7 nAChR expressed in Xenopus laevis oocytes assessed as inhibition of acetylcholine-elicited current response measured at holding potential of -60 mV by two-electrode voltage-clamp method. The format is cell-based, Oocyte.
Test [7] has as its target Neuronal acetylcholine receptor; alpha4/beta2 (Rattus norvegicus, UniProt P09483+P12390). Briefly: Inhibition of rat alpha4beta2 nAChR expressed in Xenopus laevis oocytes assessed as inhibition of acetylcholine-elicited current response measured at holding potential of -60 mV by two-electrode voltage-clamp method. Format: cell-based, Oocyte.

Activity calls are given as the source filed them. No cut-off for these calls is given here.

Usually inhibition stands for the percentage by which the read-out fell short of the control. As usually defined, the IC50 is the concentration needed to halve the response being measured.

T1 sequence (P17787 whole entry): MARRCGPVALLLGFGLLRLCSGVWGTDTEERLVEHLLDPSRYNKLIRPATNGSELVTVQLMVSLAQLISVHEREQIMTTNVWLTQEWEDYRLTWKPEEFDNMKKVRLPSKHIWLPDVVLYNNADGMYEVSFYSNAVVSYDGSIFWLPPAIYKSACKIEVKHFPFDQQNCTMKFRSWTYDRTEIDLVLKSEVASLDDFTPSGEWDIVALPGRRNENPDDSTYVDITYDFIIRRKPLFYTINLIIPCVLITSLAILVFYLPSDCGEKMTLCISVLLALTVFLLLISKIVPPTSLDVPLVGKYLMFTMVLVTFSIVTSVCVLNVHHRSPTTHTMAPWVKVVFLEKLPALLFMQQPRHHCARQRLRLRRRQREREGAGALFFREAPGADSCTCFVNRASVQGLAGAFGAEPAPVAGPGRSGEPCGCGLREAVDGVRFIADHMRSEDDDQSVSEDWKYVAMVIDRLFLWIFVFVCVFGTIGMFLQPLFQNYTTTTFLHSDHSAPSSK
T1 sequence (P43681 whole entry): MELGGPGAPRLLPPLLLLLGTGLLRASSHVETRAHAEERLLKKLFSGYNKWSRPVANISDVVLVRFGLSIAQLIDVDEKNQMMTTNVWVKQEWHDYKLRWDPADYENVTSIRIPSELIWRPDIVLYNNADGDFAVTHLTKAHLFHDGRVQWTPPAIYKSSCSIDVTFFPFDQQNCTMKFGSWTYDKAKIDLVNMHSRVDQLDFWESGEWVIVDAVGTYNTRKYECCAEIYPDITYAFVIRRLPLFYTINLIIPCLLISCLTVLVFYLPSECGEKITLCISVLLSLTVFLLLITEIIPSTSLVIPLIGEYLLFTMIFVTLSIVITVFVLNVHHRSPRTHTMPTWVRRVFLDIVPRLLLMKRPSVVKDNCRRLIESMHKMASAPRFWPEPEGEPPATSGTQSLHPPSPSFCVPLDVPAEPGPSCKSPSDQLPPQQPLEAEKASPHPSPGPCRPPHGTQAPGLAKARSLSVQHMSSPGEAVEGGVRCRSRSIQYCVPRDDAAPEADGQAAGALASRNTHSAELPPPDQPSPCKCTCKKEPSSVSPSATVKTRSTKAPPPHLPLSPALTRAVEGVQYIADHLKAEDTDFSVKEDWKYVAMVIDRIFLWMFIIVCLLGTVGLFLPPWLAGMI
Neuronal acetylcholine receptor subunit alpha-7, sequence (Q05941 whole entry): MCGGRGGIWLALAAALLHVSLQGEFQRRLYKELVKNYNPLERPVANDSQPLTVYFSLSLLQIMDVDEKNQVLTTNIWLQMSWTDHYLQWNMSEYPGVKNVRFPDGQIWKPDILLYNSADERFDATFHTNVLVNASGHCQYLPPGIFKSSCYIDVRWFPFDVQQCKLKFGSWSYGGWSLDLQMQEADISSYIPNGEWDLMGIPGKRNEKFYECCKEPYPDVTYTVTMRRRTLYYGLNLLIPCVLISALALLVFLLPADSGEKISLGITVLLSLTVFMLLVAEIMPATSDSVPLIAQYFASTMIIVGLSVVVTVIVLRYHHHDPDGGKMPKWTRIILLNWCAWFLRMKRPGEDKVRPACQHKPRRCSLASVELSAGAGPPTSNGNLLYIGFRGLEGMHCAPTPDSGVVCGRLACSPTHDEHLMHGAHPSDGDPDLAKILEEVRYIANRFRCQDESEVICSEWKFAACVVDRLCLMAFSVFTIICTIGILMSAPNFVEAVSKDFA
Neuronal acetylcholine receptor; alpha4/beta2 (Rattus norvegicus, UniProt P09483+P12390), sequence (P09483 whole entry): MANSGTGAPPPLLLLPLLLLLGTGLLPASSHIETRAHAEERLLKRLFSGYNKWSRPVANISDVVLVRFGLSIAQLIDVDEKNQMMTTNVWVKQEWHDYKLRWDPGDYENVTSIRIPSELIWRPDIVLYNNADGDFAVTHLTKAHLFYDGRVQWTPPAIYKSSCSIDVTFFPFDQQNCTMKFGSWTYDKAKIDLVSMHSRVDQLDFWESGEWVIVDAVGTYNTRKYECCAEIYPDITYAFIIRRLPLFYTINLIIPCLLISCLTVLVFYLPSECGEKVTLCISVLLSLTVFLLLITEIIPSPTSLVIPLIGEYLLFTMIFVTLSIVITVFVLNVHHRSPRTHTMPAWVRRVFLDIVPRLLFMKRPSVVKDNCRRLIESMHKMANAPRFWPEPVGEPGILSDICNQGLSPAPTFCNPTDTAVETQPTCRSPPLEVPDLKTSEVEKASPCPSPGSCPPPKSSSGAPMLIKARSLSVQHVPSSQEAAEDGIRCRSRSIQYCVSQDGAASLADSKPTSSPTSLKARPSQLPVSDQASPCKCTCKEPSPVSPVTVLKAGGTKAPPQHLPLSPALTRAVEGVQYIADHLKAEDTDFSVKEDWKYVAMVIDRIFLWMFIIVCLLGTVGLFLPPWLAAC
Neuronal acetylcholine receptor; alpha4/beta2 (Rattus norvegicus, UniProt P09483+P12390), sequence (P12390 whole entry): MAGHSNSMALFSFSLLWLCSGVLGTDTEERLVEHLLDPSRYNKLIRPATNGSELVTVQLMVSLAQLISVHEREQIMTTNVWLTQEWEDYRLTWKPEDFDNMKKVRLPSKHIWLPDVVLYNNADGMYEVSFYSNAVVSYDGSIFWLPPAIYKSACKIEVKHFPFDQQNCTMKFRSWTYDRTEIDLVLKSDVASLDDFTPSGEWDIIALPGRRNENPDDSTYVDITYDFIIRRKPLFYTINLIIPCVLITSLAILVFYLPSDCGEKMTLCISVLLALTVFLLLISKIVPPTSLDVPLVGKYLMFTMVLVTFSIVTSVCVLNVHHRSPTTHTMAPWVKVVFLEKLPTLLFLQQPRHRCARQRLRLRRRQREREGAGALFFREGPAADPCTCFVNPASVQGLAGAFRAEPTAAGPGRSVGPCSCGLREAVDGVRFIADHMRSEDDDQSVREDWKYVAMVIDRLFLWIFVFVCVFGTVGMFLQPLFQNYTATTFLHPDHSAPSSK

For `CCN1C[C@]2(COC(=O)c3ccccc3N3C(=O)C[C@H](C)C3=O)CC[C@H](OC)[C@]34C1[C@@](O)([C@@H](OC)[C@H]23)[C@@]1(O)C[C@H](OC)[C@H]2C[C@@H]4[C@@H]1[C@H]2OC`, in test [1], the inhibition turned out to be 95%. Further, the logIC50 is -1.1 in test [2] and -0.8 in test [4]. The inhibition result in test [3] and in test [5] was “Active” in each case.

With `C=C1[C@@H]2CCC[C@@]1(COC(=O)c1ccccc1-c1cccnc1)CN(CC)C2`, the inhibition result in test [1] is “Active”.

`C=C1[C@@H]2CCC[C@@]1(COC(=O)c1ccccc1-c1cc(NC(C)=O)ccn1)CN(CC)C2`: in test [1], the inhibition amounted to 80%. Also, the IC50 in test [2] came to 3.9 µM; in test [4], 15 µM. The results for the logIC50 in test [2] and in test [4] were 0.6 and 1.2, respectively. Also, the inhibition entry in test [3] and in test [5] was “Active” in each case.

For `C=C1[C@@H]2CCC[C@@]1(COC(=O)c1ccccc1-c1ccc(NC(C)=O)cn1)CN(CC)C2`, the inhibition in test [1] was 60%. Also, the results for the IC50 in test [2] and in test [4] were 4.1 µM and 29.1 µM, respectively. The logIC50 worked out at 0.6 in test [2] and 1.5 in test [4]. In addition, the inhibition entry in test [3] and in test [5] was “Active” each time.

`C=C1[C@@H]2CCC[C@@]1(COC(=O)c1ccccc1-c1ccc(NC(C)=O)nc1)CN(CC)C2`: the inhibition in test [1] is 60%. Besides, the inhibition entry in test [3] is “Active”.

Take `C=C1[C@@H]2CCC[C@@]1(COC(=O)c1ccccc1-c1ccccc1)CN(CC)C2`: the inhibition result in test [1] was “Active”.

Take `C=C1[C@@H]2CCC[C@@]1(COC(=O)c1ccccc1-c1ccc(NC(C)=O)cc1)CN(CC)C2`: the inhibition result in test [1] is “Active”.

As for `C=C1[C@@H]2CCC[C@@]1(COC(=O)c1ccccc1-c1cccc(NC(C)=O)c1)CN(CC)C2`, in test [1], the inhibition result is “Active”.

Regarding `C=C1[C@@H]2CCC[C@@]1(COC(=O)c1ccccc1-c1ccccn1)CN(CC)C2`, the inhibition in test [1] is 50%. Moreover, the inhibition result in test [3] was “Active”.

Take `C=C1[C@@H]2CCC[C@@]1(COC(=O)c1ccccc1-c1cncc(NC(C)=O)c1)CN(CC)C2`: the inhibition in test [1] came out at 60%. Besides, the inhibition entry in test [3] is “Active”.

Regarding `C=C1[C@@H]2CCC[C@@]1(COC(=O)c1ccccc1-c1ccnc(NC(C)=O)c1)CN(CC)C2`, the inhibition in test [1] is 60%. In addition, in test [3], the inhibition entry is “Active”.

As to `C=C1[C@@H]2CCC[C@@]1(COC(=O)c1ccccc1N1C(=O)CC(C)C1=O)CN(CC)C2` (stereo partly specified), the half-inhibitory concentration (IC50) in test [6] is 20.7 µM; in test [7] it was 4.66 µM.

On to `C=C1[C@@H]2CCC[C@@]1(COC(=O)c1ccccc1-c1cccc(NC(C)=O)n1)CN(CC)C2`, for which, in test [1], the inhibition stood at 80%. Moreover, the IC50 in test [2] was found to be 4.9 µM; in test [4], 27.3 µM. Besides, the logIC50 came out at 0.7 in test [2] and 1.4 in test [4]. Further, the inhibition result in test [3] and in test [5] was “Active” in each case.

As for `C=C1[C@@H]2CCC[C@@]1(COC(=O)c1ccccc1-c1ccncc1)CN(CC)C2`, the inhibition entry in test [1] was “Active”.

Source of the values: ChEMBL document CHEMBL5055676, “Novel methyllycaconitine analogues selective for the α4β2 over α7 nicotinic acetylcholine receptors” (Bioorg Med Chem, 2021).
